{"source": "paper PMC7180948", "about": "“New Insights into 4-Anilinoquinazolines as Inhibitors of Cardiac Troponin I–Interacting Kinase (TNNi3K)” (Molecules, 2020)", "assay_in_all_cases": "biochemical", "parameters_in_all_cases": "KINOMEscan competition binding panel (Eurofins DiscoverX), single concentration, % inhibition", "conditions_in_all_cases": "read-out: 7 at 1 µM % inhibition", "key": {"ALK(C1156Y)": {"target": "ALK(C1156Y) (Homo sapiens, UniProt Q9UM73, C1156Y)", "how_it_was_run": "(§1)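 Values come from single-concentration (1 µM) profiling in the Eurofins DiscoverX KINOMEscan competition-binding platform, which covers over 400 kinases.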"}, "ANKK1": {"target": "ANKK1 (Homo sapiens, UniProt Q8NFD2)", "sequence (Q8NFD2 whole entry)": "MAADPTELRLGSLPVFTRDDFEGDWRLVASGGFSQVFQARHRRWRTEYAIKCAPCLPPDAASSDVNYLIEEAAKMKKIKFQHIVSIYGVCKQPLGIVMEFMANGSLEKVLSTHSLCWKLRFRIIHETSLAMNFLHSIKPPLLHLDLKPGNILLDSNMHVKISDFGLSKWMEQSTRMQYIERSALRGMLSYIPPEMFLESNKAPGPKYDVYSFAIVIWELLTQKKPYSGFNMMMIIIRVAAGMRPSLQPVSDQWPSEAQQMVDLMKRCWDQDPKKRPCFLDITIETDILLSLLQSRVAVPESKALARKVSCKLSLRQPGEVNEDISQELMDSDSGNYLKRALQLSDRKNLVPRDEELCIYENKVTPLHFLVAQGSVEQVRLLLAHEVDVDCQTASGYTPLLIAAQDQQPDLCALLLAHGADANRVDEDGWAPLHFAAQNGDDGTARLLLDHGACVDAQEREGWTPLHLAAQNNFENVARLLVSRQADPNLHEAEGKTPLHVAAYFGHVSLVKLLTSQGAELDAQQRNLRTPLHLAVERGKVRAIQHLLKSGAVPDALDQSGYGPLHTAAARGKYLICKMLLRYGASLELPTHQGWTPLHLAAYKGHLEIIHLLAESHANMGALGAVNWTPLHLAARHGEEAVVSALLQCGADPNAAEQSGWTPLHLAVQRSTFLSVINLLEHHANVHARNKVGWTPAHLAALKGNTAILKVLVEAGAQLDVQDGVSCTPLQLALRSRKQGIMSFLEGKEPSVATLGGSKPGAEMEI", "how_it_was_run": "as §1"}, "AURKB": {"target": "AURKB (Homo sapiens, UniProt Q96GD4)", "sequence (Q96GD4 whole entry)": "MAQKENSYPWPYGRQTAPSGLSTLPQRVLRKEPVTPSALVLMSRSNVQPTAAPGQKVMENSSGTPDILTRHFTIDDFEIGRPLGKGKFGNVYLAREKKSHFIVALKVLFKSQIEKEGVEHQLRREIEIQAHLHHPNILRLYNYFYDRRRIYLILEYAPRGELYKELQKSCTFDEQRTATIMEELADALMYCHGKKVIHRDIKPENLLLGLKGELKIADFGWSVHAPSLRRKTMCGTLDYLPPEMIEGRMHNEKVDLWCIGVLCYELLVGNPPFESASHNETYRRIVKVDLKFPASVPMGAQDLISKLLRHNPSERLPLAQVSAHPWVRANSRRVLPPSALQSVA", "how_it_was_run": "as §1"}, "AXL": {"target": "AXL (Homo sapiens, UniProt P30530)", "sequence (P30530 whole entry)": "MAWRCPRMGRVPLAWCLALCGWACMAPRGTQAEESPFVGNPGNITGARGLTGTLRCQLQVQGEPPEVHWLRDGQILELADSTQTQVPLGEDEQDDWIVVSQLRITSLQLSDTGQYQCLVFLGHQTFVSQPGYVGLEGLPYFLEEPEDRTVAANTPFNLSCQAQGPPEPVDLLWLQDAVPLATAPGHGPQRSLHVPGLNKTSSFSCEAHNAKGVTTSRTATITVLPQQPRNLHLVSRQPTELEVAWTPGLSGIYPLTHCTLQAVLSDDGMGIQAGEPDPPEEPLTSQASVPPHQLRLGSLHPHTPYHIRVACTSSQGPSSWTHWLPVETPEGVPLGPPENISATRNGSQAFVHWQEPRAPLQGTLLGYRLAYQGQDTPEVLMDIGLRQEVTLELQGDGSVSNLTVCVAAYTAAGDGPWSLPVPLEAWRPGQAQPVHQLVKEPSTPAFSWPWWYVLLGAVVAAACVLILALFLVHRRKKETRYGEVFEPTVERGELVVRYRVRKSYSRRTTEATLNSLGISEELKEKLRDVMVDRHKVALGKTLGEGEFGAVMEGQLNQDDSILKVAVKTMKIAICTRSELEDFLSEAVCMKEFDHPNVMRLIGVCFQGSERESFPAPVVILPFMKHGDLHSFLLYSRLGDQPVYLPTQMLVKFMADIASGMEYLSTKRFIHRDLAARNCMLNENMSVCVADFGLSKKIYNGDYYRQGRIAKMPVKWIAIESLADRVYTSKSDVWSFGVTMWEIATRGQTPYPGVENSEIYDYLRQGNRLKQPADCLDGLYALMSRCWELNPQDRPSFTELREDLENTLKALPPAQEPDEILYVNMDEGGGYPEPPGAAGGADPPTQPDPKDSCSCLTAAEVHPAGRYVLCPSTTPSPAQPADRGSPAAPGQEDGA", "how_it_was_run": "as §1"}, "BRSK1": {"target": "BRSK1 (Homo sapiens, UniProt Q8TDC3)", "sequence (Q8TDC3 whole entry)": "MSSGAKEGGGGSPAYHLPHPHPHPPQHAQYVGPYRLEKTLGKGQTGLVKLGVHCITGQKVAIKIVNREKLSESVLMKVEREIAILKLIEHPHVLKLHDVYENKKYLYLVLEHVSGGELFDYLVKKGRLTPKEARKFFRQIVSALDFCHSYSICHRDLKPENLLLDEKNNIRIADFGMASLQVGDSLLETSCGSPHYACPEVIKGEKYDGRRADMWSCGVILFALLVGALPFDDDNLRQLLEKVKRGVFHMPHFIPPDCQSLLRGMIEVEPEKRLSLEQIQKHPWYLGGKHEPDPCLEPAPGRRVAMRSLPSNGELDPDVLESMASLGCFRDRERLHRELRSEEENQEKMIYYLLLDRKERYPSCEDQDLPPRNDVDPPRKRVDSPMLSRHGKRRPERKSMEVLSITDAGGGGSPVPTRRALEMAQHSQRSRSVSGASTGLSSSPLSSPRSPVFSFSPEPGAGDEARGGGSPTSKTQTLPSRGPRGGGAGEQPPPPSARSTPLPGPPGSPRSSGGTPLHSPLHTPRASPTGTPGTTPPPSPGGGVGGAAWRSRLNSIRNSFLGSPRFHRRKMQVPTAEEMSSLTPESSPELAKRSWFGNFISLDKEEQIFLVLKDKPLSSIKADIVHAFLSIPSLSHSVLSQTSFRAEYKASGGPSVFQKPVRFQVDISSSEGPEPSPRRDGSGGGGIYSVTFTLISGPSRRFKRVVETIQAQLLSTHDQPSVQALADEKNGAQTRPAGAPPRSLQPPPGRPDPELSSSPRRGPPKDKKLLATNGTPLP", "how_it_was_run": "as §1"}, "CAMK2G": {"target": "CAMK2G (Homo sapiens, UniProt Q13555)", "how_it_was_run": "as §1"}, "CDC2L1": {"target": "T1, CDC2L1 (Homo sapiens, UniProt P21127)", "T1 construct": "gene CDK11B", "how_it_was_run": "as §1"}, "CSNK2A1": {"target": "CSNK2A1 (Homo sapiens, UniProt P68400)", "how_it_was_run": "as §1"}, "DDR1": {"target": "DDR1 (Homo sapiens, UniProt Q08345)", "how_it_was_run": "as §1"}, "EGFR": {"target": "EGFR (Homo sapiens, UniProt P00533)", "how_it_was_run": "as §1"}, "EGFR(G719S)": {"target": "EGFR(G719S) (Homo sapiens, UniProt P00533, G719S)", "how_it_was_run": "as §1"}, "GRK4": {"target": "GRK4 (Homo sapiens, UniProt P32298)", "how_it_was_run": "as §1"}, "IKK-beta": {"target": "T2, IKK-beta (Homo sapiens, UniProt O14920)", "T2 construct": "gene IKBKB", "how_it_was_run": "as §1"}, "LCK": {"target": "LCK (Homo sapiens, UniProt P06239)", "how_it_was_run": "as §1"}, "LKB1": {"target": "T3, LKB1 (Homo sapiens, UniProt Q15831)", "T3 construct": "gene STK11", "T3 sequence (Q15831 whole entry)": "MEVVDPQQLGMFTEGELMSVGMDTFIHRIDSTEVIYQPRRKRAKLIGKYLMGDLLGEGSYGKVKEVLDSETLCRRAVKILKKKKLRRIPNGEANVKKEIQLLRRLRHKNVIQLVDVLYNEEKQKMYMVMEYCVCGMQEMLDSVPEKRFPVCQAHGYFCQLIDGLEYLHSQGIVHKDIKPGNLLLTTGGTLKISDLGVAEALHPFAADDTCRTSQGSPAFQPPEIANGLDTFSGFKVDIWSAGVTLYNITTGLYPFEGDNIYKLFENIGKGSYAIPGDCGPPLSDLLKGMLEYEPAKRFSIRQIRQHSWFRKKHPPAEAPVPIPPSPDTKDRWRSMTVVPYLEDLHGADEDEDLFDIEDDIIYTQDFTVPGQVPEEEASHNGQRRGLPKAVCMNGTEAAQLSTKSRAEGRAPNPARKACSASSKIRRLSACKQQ", "how_it_was_run": "as §1"}, "MAPKAPK5": {"target": "MAPKAPK5 (Homo sapiens, UniProt Q8IW41)", "how_it_was_run": "as §1"}, "NEK1": {"target": "NEK1 (Homo sapiens, UniProt Q96PY6)", "how_it_was_run": "as §1"}, "NEK4": {"target": "NEK4 (Homo sapiens, UniProt P51957)", "sequence (P51957 whole entry)": "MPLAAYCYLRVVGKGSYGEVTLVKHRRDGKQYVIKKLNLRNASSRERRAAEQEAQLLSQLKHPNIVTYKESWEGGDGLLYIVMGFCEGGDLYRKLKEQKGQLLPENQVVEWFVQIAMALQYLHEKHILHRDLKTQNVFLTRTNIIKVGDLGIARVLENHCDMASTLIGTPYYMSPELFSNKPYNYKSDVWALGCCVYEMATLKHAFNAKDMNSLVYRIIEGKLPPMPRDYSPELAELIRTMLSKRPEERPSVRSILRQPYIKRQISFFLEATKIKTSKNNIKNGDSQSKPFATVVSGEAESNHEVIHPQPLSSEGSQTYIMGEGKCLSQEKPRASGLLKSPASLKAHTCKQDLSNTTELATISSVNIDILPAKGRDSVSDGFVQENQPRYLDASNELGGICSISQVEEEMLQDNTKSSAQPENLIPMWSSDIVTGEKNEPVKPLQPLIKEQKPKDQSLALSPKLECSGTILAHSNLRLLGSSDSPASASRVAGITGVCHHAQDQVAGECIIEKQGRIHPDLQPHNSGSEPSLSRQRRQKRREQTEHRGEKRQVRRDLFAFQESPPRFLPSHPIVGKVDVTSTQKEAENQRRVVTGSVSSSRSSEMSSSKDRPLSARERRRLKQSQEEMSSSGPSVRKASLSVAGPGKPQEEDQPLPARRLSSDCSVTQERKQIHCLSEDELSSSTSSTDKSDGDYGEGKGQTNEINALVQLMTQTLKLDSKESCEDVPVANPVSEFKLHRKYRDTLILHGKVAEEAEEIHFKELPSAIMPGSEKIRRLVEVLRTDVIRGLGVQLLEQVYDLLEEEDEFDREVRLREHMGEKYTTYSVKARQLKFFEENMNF", "how_it_was_run": "as §1"}, "PAK6": {"target": "PAK6 (Homo sapiens, UniProt Q9NQU5)", "how_it_was_run": "as §1"}, "PHKG2": {"target": "PHKG2 (Homo sapiens, UniProt P15735)", "how_it_was_run": "as §1"}, "PRKG2": {"target": "PRKG2 (Homo sapiens, UniProt Q13237)", "how_it_was_run": "as §1"}, "[1]": {"target": "T4, RSK4(Kin.Dom.1-N-terminal) (Homo sapiens, UniProt Q9UK32)", "T4 construct": "gene RPS6KA6; Kin.Dom.1-N-terminal", "T4 sequence (Q9UK32 whole entry)": "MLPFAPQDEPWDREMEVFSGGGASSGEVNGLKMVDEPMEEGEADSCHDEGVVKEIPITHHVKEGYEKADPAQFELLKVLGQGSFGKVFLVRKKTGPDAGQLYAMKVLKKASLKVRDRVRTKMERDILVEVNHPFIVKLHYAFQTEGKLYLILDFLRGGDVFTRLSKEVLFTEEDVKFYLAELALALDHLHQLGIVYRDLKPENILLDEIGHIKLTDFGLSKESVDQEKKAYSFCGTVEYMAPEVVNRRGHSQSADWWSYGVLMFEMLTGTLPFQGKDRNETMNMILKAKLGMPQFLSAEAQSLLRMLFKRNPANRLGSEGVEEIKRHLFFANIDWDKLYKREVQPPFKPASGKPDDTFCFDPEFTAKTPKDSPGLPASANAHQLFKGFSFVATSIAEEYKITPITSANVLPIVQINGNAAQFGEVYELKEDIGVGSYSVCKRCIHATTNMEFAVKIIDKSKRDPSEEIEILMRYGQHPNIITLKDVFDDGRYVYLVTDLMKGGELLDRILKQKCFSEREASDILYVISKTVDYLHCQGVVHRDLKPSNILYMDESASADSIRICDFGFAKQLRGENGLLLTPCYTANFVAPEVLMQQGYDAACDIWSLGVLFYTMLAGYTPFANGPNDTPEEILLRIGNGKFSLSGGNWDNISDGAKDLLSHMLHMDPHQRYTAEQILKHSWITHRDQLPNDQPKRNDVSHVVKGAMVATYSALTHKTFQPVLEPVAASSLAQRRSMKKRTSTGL", "how_it_was_run": "as §1"}, "SGK2": {"target": "SGK2 (Homo sapiens, UniProt Q9HBY8)", "how_it_was_run": "as §1"}, "SIK2": {"target": "SIK2 (Homo sapiens, UniProt Q9H0K1)", "how_it_was_run": "as §1"}}}
{"smiles": "CNS(=O)(=O)c1ccc(N(C)C)c(Nc2ncnc3cc(OC)c(OC)cc23)c1", "note": "[compound 7, 3-((6,7-dimethoxyquinazolin-4-yl)amino)-4-(dimethylamino)-N-methylbenzenesulfonamide]", "values": [{"measurement": "inhibition at 1 µM", "setting": "ALK(C1156Y)", "result": 0, "unit": "%"}, {"measurement": "inhibition at 1 µM", "setting": "ANKK1", "result": 19, "unit": "%"}, {"measurement": "inhibition at 1 µM", "setting": "AURKB", "result": 0, "unit": "%"}, {"measurement": "inhibition at 1 µM", "setting": "AXL", "result": 12, "unit": "%"}, {"measurement": "inhibition at 1 µM", "setting": "BRSK1", "result": 0, "unit": "%"}, {"measurement": "inhibition at 1 µM", "setting": "CAMK2G", "result": 0, "unit": "%"}, {"measurement": "inhibition at 1 µM", "setting": "CDC2L1", "result": 0, "unit": "%"}, {"measurement": "inhibition at 1 µM", "setting": "CSNK2A1", "result": 0, "unit": "%"}, {"measurement": "inhibition at 1 µM", "setting": "DDR1", "result": 0, "unit": "%"}, {"measurement": "inhibition at 1 µM", "setting": "EGFR", "result": 0, "unit": "%"}, {"measurement": "inhibition at 1 µM", "setting": "EGFR(G719S)", "result": 0, "unit": "%"}, {"measurement": "inhibition at 1 µM", "setting": "GRK4", "result": 0, "unit": "%"}, {"measurement": "inhibition at 1 µM", "setting": "IKK-beta", "result": 68, "unit": "%"}, {"measurement": "inhibition at 1 µM", "setting": "LCK", "result": 63, "unit": "%"}, {"measurement": "inhibition at 1 µM", "setting": "LKB1", "result": 0, "unit": "%"}, {"measurement": "inhibition at 1 µM", "setting": "MAPKAPK5", "result": 27, "unit": "%"}, {"measurement": "inhibition at 1 µM", "setting": "NEK1", "result": 0, "unit": "%"}, {"measurement": "inhibition at 1 µM", "setting": "NEK4", "result": 12, "unit": "%"}, {"measurement": "inhibition at 1 µM", "setting": "PAK6", "result": 7, "unit": "%"}, {"measurement": "inhibition at 1 µM", "setting": "PHKG2", "result": 0, "unit": "%"}, {"measurement": "inhibition at 1 µM", "setting": "PRKG2", "result": 14, "unit": "%"}, {"measurement": "inhibition at 1 µM", "setting": "[1]", "result": 34, "unit": "%"}, {"measurement": "inhibition at 1 µM", "setting": "SGK2", "result": 0, "unit": "%"}, {"measurement": "inhibition at 1 µM", "setting": "SIK2", "result": 69, "unit": "%"}]}
